One data set deals with rgRSV224 virus. The data set can be described thus: Antiviral activity: rgRSV224 (GFP) replication in HeLa cells. Format: cell-based, respiratory syncytial virus (RSV). The settings on record: human respiratory syncytial virus, HeLa, 72 h, read-out: RSV HELA EC50 (μM), rgRSV224 virus (MOI=1), HeLa cells, GFP expression three days post-virus exposure.
The nature of a further data set: in vitro. The settings on record: human, TOX HELA CC50 (μM).

Protocol for in vitro: Black 384-well clear-bottom microtiter plates (Corning, Amsterdam, The Netherlands) were filled via acoustic drop ejection using the echo liquid handler (Labcyte, Sunnyvale, Calif.). 200 nL of compound stock solutions (100% DMSO) were transferred to the assay plates. 9 serial 4-fold dilutions of compound were made, creating per quadrant the same compound concentration. The assay was initiated by adding 10 μL of culture medium to each well (RPMI medium without phenol red, 10% FBS-heat inactivated, 0.04% gentamycin (50 mg/mL). All addition steps are done by using a multidrop dispenser (Thermo Scientific, Erembodegem, Belgium). Next, rgRSV224 virus (MOI=1) diluted in culture medium was added to the plates. rgRSV224 virus is an engineered virus that includes an additional GFP gene (Hallak L K, Spillmann D, Collins P L, Peeples M E. Glycosaminoglycan sulfation requirements for respiratory syncytial virus infection; Journal of virology (2000), 74(22), 10508-13) and was in-licensed from the NIH (Bethesda, Md., USA). Finally, 20 μL of a HeLa cell suspension (3,000 cells/well) were plated. Medium, virus- and mock-infected controls were included in each test. The wells contain 0.05% DMSO per volume. Cells were incubated at 37° C. in a 5% CO2 atmosphere. Three days post-virus exposure, viral replication was quantified by measuring GFP expression in the cells by an in house developed MSM laser microscope (Tibotec, Beerse, Belgium). The EC50 was defined as the 50% inhibitory concentration for GFP expression. In parallel, compounds were incubated for three days in a set of white 384-well microtiter plates (Corning) and the cytotoxicity of compounds in HeLa cells was determined by measuring the ATP content of the cells using the ATPlite kit (Perkin Elmer, Zaventem, Belgium) according to the manufacturer's instructions. The CC50 was defined as the 50% concentration for cytotoxicity.

One may read the EC50 as the concentration that produces a half-maximal response. As a reminder, the CC50 is the concentration at which the toxic effect on the cells reaches its halfway point. The low end stands for harm at low concentration, the high end for better tolerance by the cells. With `C[C@@H]1c2ccccc2CCN1C(=O)c1cc(C2CC2)n2nc(-c3ccc(N4C[C@@H](O)[C@@H](F)C4)cc3F)cc2n1` (relative stereo) [Compound 107, (7-cyclopropyl-2-(2-fluoro-4-(cis-3-fluoro-4-hydroxypyrrolidin-1-yl)phenyl)pyrazolo[1,5-a]pyrimidin-5-yl)((R)-1-methyl-3,4-dihydroisoquinolin-2(1H)-yl)methanone], the EC50 in the data set on rgRSV224 virus came out at 0.017 µM. Also, the CC50 at 3 days in the data set “in vitro” worked out at 21.2 µM.

In the case of `C[C@@H]1c2ccccc2CCN1C(=O)c1cc(C2CC2)n2nc(-c3ccc(N4CC[C@](C)(CC(N)=O)C4)cc3F)cc2n1` (single isomer, unassigned) [Compound 23, 2-[(3*R)-1-(4-{7-Cyclopropyl-5-[(1R)-1-methyl-1,2,3,4-tetrahydroisoquinoline-2-carbonyl]pyrazolo[1,5-a]pyrimidin-2-yl}-3-fluorophenyl)-3-methylpyrrolidin-3-yl]acetamide], the EC50 in the data set with rgRSV224 virus worked out at 0.032 µM. In addition, the CC50 at 3 days in the data set “in vitro” turned out to be 30.3 µM.

As for `C[C@@H]1c2ccccc2CCN1C(=O)c1cc(C2CC2)n2nc(-c3ccc(N4CC[C@@](C)(CC(N)=O)C4)cc3F)cc2n1` (single isomer, unassigned) [Compound 24, 2-[(3*S)-1-(4-{7-Cyclopropyl-5-[(1R)-1-methyl-1,2,3,4-tetrahydroisoquinoline-2-carbonyl]pyrazolo[1,5-a]pyrimidin-2-yl}-3-fluorophenyl)-3-methylpyrrolidin-3-yl]acetamide], in the data set with rgRSV224 virus, the EC50 was 0.03 µM. In addition, in “in vitro”, the CC50 at 3 days amounted to 26.4 µM. Regarding `C[C@@H]1c2ccsc2CCN1C(=O)c1cc(C2CC2)n2nc(-c3ccc(N4CC[C@](C)(CC(N)=O)C4)cc3F)cc2n1` (single isomer, unassigned) [Compound 25, 2-[(3*R)-1-(4-{7-Cyclopropyl-5-[(4*R)-4-methyl-4,5,6,7-tetrahydro-thieno[3,2-c]pyridine-5-carbonyl]pyrazolo[1,5-a]pyrimidin-2-yl}-3-fluorophenyl)-3-methylpyrrolidin-3-yl]acetamide], in the data set on rgRSV224 virus, the EC50 was 0.023 µM. The same compound displayed a CC50 at 3 days in “in vitro” of 29.6 µM. Taken in the same sequence, the figures for `C[C@@H]1c2ccsc2CCN1C(=O)c1cc(C2CC2)n2nc(-c3ccc(N4CC[C@@](C)(CC(N)=O)C4)cc3F)cc2n1` (single isomer, unassigned) [Compound 26, 2-[(3*S)-1-(4-{7-Cyclopropyl-5-[(4*R)-4-methyl-4,5,6,7-tetrahydro-thieno[3,2-c]pyridine-5-carbonyl]pyrazolo[1,5-a]pyrimidin-2-yl}-3-fluorophenyl)-3-methylpyrrolidin-3-yl]acetamide] were 0.02 µM and 29.6 µM. For the compound `C[C@@H]1c2ccccc2CCN1C(=O)c1cc(C2CC2)n2nc(-c3ccc(N4CC[C@H](C(C)(C)C(N)=O)C4)cc3F)cc2n1` (single isomer, unassigned) [Compound 27, 2-[(3*R)-1-(4-{7-Cyclopropyl-5-[(1R)-1-methyl-1,2,3,4-tetrahydroisoquinoline-2-carbonyl]pyrazolo[1,5-a]pyrimidin-2-yl}-3-fluorophenyl)pyrrolidin-3-yl]-2-methylpropanamide], the EC50 with rgRSV224 virus is 0.089 µM. The compound also displayed a CC50 at 3 days in “in vitro” of 34.4 µM. Turning to `C[C@@H]1c2ccccc2CCN1C(=O)c1cc(C2CC2)n2nc(-c3ccc(N4CC[C@@H](C(C)(C)C(N)=O)C4)cc3F)cc2n1` (single isomer, unassigned) [Compound 28, 2-[(3*S)-1-(4-{7-Cyclopropyl-5-[(1R)-1-methyl-1,2,3,4-tetrahydroisoquinoline-2-carbonyl]pyrazolo[1,5-a]pyrimidin-2-yl}-3-fluorophenyl)pyrrolidin-3-yl]-2-methylpropanamide], the EC50 in the data set with rgRSV224 virus worked out at 0.072 µM. The compound further returned a CC50 at 3 days in “in vitro” of 32.2 µM. Consider `C[C@@H]1c2ccsc2CCN1C(=O)c1cc(C2CC2)n2nc(-c3ccc(N4CC[C@H](C(C)(C)C(N)=O)C4)cc3F)cc2n1` (single isomer, unassigned) [Compound 29, 2-[(3*R)-1-(4-{7-Cyclopropyl-5-[(4*R)-4-methyl-4,5,6,7-tetrahydro-thieno[3,2-c]pyridine-5-carbonyl]pyrazolo[1,5-a]pyrimidin-2-yl}-3-fluorophenyl)pyrrolidin-3-yl]-2-methyl-propanamide], for which, in the data set with rgRSV224 virus, the EC50 is 0.045 µM. In “in vitro”, this compound registered a CC50 at 3 days of 43.7 µM. `C[C@@H]1c2ccsc2CCN1C(=O)c1cc(C2CC2)n2nc(-c3ccc(N4CC[C@H](C(=O)NS(C)(=O)=O)C4)cc3F)cc2n1` (single isomer, unassigned) [Compound 41, (3S)-1-(4-{7-Cyclopropyl-5-[(4*R)-4-methyl-4,5,6,7-tetrahydro-thieno[3,2-c]pyridine-5-carbonyl]pyrazolo[1,5-a]pyrimidin-2-yl}-3-fluorophenyl)-N-methanesulfonylpyrrolidine-3-carboxamide]: the EC50 in the data set with rgRSV224 virus amounted to 0.036 µM. For the same compound, in “in vitro”, the midpoint of cytotoxicity, the CC50 at 3 days, lay at 51.1 µM. Taken in the same sequence, the figures for `C[C@@H]1c2ccsc2CCN1C(=O)c1cc(C2CC2)n2nc(-c3ccc(N4CC[C@@](C)(C(N)=O)C4)cc3F)cc2n1` (single isomer, unassigned) [Compound 44, (3*R)-1-(4-{7-Cyclopropyl-5-[(4*R)-4-methyl-4,5,6,7-tetrahydro-thieno[3,2-c]pyridine-5-carbonyl]pyrazolo[1,5-a]pyrimidin-2-yl}-3-fluorophenyl)-3-methylpyrrolidine-3-carboxamide] were 0.019 µM and 45.2 µM. Take `C[C@@H]1c2ccsc2CCN1C(=O)c1cc(C2CC2)n2nc(-c3ccc(N4CC[C@](C)(C(N)=O)C4)cc3F)cc2n1` (single isomer, unassigned) [Compound 45, (3*S)-1-(4-{7-Cyclopropyl-5-[(4*R)-4-methyl-4,5,6,7-tetrahydro-thieno[3,2-c]pyridine-5-carbonyl]pyrazolo[1,5-a]pyrimidin-2-yl}-3-fluorophenyl)-3-methylpyrrolidine-3-carboxamide]: in the data set on rgRSV224 virus, the EC50 amounted to 0.02 µM. The compound also showed a 50% cytotoxic concentration (CC50) at 3 days in “in vitro” of 31.4 µM. Taken in the same sequence, the figures for `C[C@@H]1c2ccccc2CCN1C(=O)c1cc(C2CC2)n2nc(-c3ccc(N4CCC(O)(CO)C4)cc3F)cc2n1` (single isomer, unassigned) [Compound 103] were 0.019 µM and 35.8 µM. Taken in the same sequence, the figures for `CO[C@H]1CN(c2ccc(-c3cc4nc(C(=O)N5CCc6ccccc6[C@H]5C)cc(C5CC5)n4n3)c(F)c2)C[C@@H]1O` (stereo in doubt) [Compound 96, (7-cyclopropyl-2-(2-fluoro-4-((trans)-3-hydroxy-4-methoxypyrrolidin-1-yl)phenyl)pyrazolo[1,5-a]pyrimidin-5-yl)((R)-1-methyl-3,4-dihydroisoquinolin-2(1H)-yl)methanone] were 0.05 µM and 22.5 µM. `C[C@@H]1c2ccccc2CCN1C(=O)c1cc(C2CC2)n2nc(-c3ccc(N4C[C@H](C)[C@@H](O)C4)cc3F)cc2n1` (stereo in doubt) [Compound 99, (7-cyclopropyl-2-(2-fluoro-4-((trans)-3-hydroxy-4-methylpyrrolidin-1-yl)phenyl)pyrazolo[1,5-a]pyrimidin-5-yl)((R)-1-methyl-3,4-dihydroisoquinolin-2(1H)-yl)methanone]: the EC50 with rgRSV224 virus amounted to 0.092 µM. The compound further gave a CC50 at 3 days in “in vitro” of more than 100 µM. Turning to `C[C@@H]1c2ccccc2CCN1C(=O)c1cc(C2CC2)n2nc(-c3ccc(N4CCC(C#N)C4)cc3F)cc2n1` (stereo partly drawn) [Compound 1, 1-(4-{7-Cyclopropyl-5-[(1R)-1-methyl-1,2,3,4-tetrahydroisoquinoline-2-carbonyl]-pyrazolo[1,5-a]pyrimidin-2-yl}-3-fluorophenyl)pyrrolidine-3-carbonitrile], in the data set on rgRSV224 virus, the EC50 came to 0.085 µM. For the same compound, the CC50 at 3 days in the data set “in vitro” was more than 100 µM. In the case of `C[C@@H]1c2ccccc2CCN1C(=O)c1cc(C2CC2)n2nc(-c3ccc(N4CC[C@@H](c5nnn[nH]5)C4)cc3F)cc2n1` [Compound 2, (1R)-2-(7-Cyclopropyl-2-{2-fluoro-4-[(3R)-3-(1H-1,2,3,4-tetrazol-5-yl)pyrrolidin-1-yl]phenyl}pyrazolo[1,5-a]pyrimidine-5-carbonyl)-1-methyl-1,2,3,4-tetrahydroisoquinoline], the EC50 in the data set with rgRSV224 virus worked out at 0.056 µM. Also, it took 38.7 µM to reach half-maximal cytotoxicity in “in vitro” (CC50 at 3 days). On to `C[C@@H]1c2ccccc2CCN1C(=O)c1cc(C2CC2)n2nc(-c3ccc(N4CC[C@H](c5nnn[nH]5)C4)cc3F)cc2n1` [Compound 3, (1R)-2-(7-Cyclopropyl-2-{2-fluoro-4-[(3S)-3-(1H-1,2,3,4-tetrazol-5-yl)pyrrolidin-1-yl]phenyl}pyrazolo[1,5-a]pyrimidine-5-carbonyl)-1-methyl-1,2,3,4-tetrahydroisoquinoline], for which the EC50 in the data set on rgRSV224 virus was 0.063 µM. In addition, the CC50 at 3 days in the data set “in vitro” came to 43 µM.

As to `C[C@@H]1c2ccccc2CCN1C(=O)c1cc(C2CC2)n2nc(-c3ccc(N4CC[C@H](c5noc(=O)[nH]5)C4)cc3F)cc2n1` [Compound 4, 3-[(3S)-1-(4-{7-Cyclopropyl-5-[(1R)-1-methyl-1,2,3,4-tetrahydroisoquinoline-2-carbonyl]pyrazolo[1,5-a]pyrimidin-2-yl}-3-fluorophenyl)pyrrolidin-3-yl]-4,5-dihydro-1,2,4-oxadiazol-5-one], the EC50 in the data set with rgRSV224 virus worked out at 0.049 µM. This compound yielded a CC50 at 3 days in “in vitro” of 23 µM. In the case of `C[C@@H]1c2ccccc2CCN1C(=O)c1cc(C2CC2)n2nc(-c3ccc(N4CCC5(C4)CS(=O)(=O)C5)cc3F)cc2n1` [Compound 6], the EC50 in the data set with rgRSV224 virus was 0.098 µM. The same compound showed a CC50 at 3 days in “in vitro” of more than 100 µM. Take `C[C@@H]1c2ccccc2CCN1C(=O)c1cc(-c2ccc(Cl)cc2)n2nc(-c3ccc(N4CC[C@H](C(N)=O)C4)cc3F)cc2n1` [Compound 59, (3S)-1-{4-[7-(4-Chlorophenyl)-5-[(1R)-1-methyl-1,2,3,4-tetrahydroisoquinoline-2-carbonyl]pyrazolo[1,5-a]pyrimidin-2-yl]-3-fluorophenyl}pyrrolidine-3-carboxamide]: in the data set with rgRSV224 virus, the EC50 was 0.047 µM.

These data come from patent publication US11339165B2, “Pyrazolopyrimidines having activity against the respiratory syncytial virus (RSV)” (priority 2017, dated 2022).
